The source of these data is ChEMBL document CHEMBL2028040, “Malaria Box”.

pEC50, pIC50: −log10 of the molar value.

A short description of series [1]: MMV: Cytotoxicity against human fibroblasts (MRC-5) cells. The conditions noted are these: MRC-5 cells (human fibroblasts).
Series [2] deals with Plasmodium falciparum. Nature of the series: MMV: Inhibition of Plasmodium falciparum K1 (EC50). The class given is functional, organism-based.
For series [3], the system named is Plasmodium falciparum. As to the kind of experiment: MMV: Inhibition of Plasmodium falciparum 3D7 (EC50). Type of series: functional, organism-based.
Series [4] concerns Trypanosoma brucei rhodesiense. As to the kind of experiment: MMV: Inhibition of Trypanosoma brucei rhodesiense (STIB 900) (HAT in vitro). Type of series: functional, organism-based.
Series [5] relates to Leishmania infantum. As to the kind of experiment: MMV: Inhibition of Leishmania infantum (MHOM/MA/BE/67) in vitro. The class given is functional, organism-based.
In series [6] the test system is Plasmodium falciparum. As to the kind of experiment: MMV: Inhibition of Plasmodium falciparum 3D7 at 5uM compound concentration. Type of series: functional.
In series [7] the test system is Trypanosoma brucei brucei. As to the kind of experiment: MMV: Inhibition of Trypanosoma brucei brucei (Squib 427) (HAT in vitro). Type of series: functional, organism-based.
In series [8] the test system is Trypanosoma cruzi. Nature of the series: MMV: Inhibition of Trypanosoma cruzi (Tulahuen C4 LacZ) (Chagas in vitro). Type of series: functional, organism-based.
Series [9] has as its system Plasmodium falciparum. As to the kind of experiment: MMV: Inhibition of Plasmodium falciparum 3D7 at 2uM compound concentration. Type of series: functional.

Broadly, the pIC50 is the negative decadic logarithm of the IC50, by convention in mol/L. A lower pIC50 goes with a large IC50. In general, pEC50 refers to the negative decadic logarithm of the EC50, by convention in mol/L. As a reminder, the inhibition is the relative decrease from the control value, in per cent. Lower therefore signals a response near the control. Take `CSC1=NC(=Nc2c(C)cccc2C)C2(CCC(C(C)(C)C)CC2)N1c1ccc(Cl)cc1` (configuration not stated): the pIC50 is less than 4.49 in series [1]; 4.82 in series [4]; 4.79 in series [5]; 4.79 in series [7]; 4.81 in series [8]. The values for the pEC50 in [2] and in series [3] were 6.76 and 6.87, respectively. The compound further displayed an inhibition at 5 µM in [6] of 96%.
Take `Oc1ccccc1CN1CCC2(CCCN(Cc3ccccc3F)C2)C1` (configuration not stated): the pIC50 is less than 4.49 in series [1]; 4.80 in series [4]; 4.80 in series [5]; 4.83 in series [7]; 4.85 in series [8]. The pEC50 in series [2] is 6.57; in [3], 6.26. Moreover, at 5 µM the inhibition in series [6] was 98%.
In the case of `COc1cccc(O)c1CN1CCC2(CCCN(Cc3ccc(F)cc3)C2)C1` (configuration not stated), the pIC50 was less than 4.49 in series [1]; 5.73 in [4]; 4.99 in series [5]; 5.37 in series [7]; 4.91 in series [8]. Besides, the pEC50 was 6.43 in series [2] and 6.28 in [3]. The compound further came in with an inhibition at 5 µM in series [6] of 95%.
As for `CCOC(=O)C1=C(C)N=c2sc(=Cc3ccccc3O)c(=O)n2C1c1ccc(OC)c2ccccc12` (configuration not stated), the pIC50 in series [1] was less than 4.49; in series [4], 5.13; in [5], 4.79; in [7], 4.77; in series [8], less than 4.49. In addition, the pEC50 is 5.93 in series [2] and 5.82 in series [3]. For the same compound, in [6], the inhibition at 5 µM amounted to 97%.
Consider `CCOc1ccc(N2C(N)=NC(N)=NC2(C)C)cc1`, for which the pIC50 in series [1] was 4.68; in series [4], less than 4.49; in [5], less than 4.49; in [7] it was less than 4.49; in series [8], less than 4.49. Moreover, testing at 2 µM in series [9] gave an inhibition of 92%.
For `Cc1ccc(N2C(=O)C3C(C2=O)C2(c4ccccc4)C(=O)C3(c3ccccc3)C(c3ccccc3)=C2c2ccccc2)cc1` (configuration not stated), the pIC50 in [1], in [4], in [5], in series [7] and in series [8] was less than 4.49 each time. The pEC50 in series [2] is 6.40; in [3] it was 6.55. Besides, the inhibition at 5 µM in series [6] was determined as 98%.
As for `CCCCCCc1cc2cc(-c3csc(C=Cc4ccccc4)n3)c(=O)oc2cc1O`, the pIC50 in [1] was less than 4.49; in series [4] it was 5.05; in series [5], less than 4.49; in [7] it was 4.87; in series [8] it was 4.72. Moreover, the pEC50 is 6.84 in [2] and 6.41 in series [3]. The compound also had an inhibition at 5 µM in series [6] of 92%.
On to `O=C(NC(c1ccccc1)c1ccc2cccnc2c1O)c1ccccc1` (configuration not stated), for which the pIC50 in series [1] is 4.93; in [4] it was more than 6.90; in [5] it was 4.78; in [7], more than 6.90; in series [8], more than 6.90. For the same compound, the results for the pEC50 in [2] and in series [3] were 5.84 and 5.93, respectively. Besides, in series [6], the inhibition at 5 µM was 95%.
Regarding `COc1ccc(C2=C(c3ccc(OC)cc3)C3(c4ccccc4)C(=O)C2(c2ccccc2)C2C(=O)N(c4ccc(C)cc4)C(=O)C23)cc1` (configuration not stated), the negative logarithm of the IC50 (pIC50) in series [1], in series [4], in series [5], in series [7] and in series [8] was less than 4.49 throughout. The pEC50 in [2] was 6.73; in [3], 6.83. In addition, the inhibition at 5 µM in series [6] turned out to be 98%.
With `CCOC(=O)C1=C(c2ccccc2)N=c2sc(=Cc3cc(C)n(-c4ccc(F)cc4)c3C)c(=O)n2C1c1cccc(OC)c1OC` (configuration not stated), the negative logarithm of the IC50 (pIC50) in series [1] was less than 4.49; in series [4], 4.88; in series [5], less than 4.49; in series [7] it was less than 4.49; in series [8], less than 4.49. Besides, the pEC50 in series [2] is 6.46; in [3], 6.81. Besides, in series [6], 5 µM produced 94% inhibition.
With `COc1cccc(C=Cc2nc(=O)c3ccccc3o2)c1OC`, the pIC50 in series [1] was less than 4.49; in series [4], 4.76; in [5] it was less than 4.49; in series [7], less than 4.49; in series [8], less than 4.49. Besides, the pEC50 in series [2] is 7.44; in [3], 7.62. Also, the inhibition at 5 µM in series [6] stood at 96%.
For `COc1ccc(CNC2CCN(c3ccc(NC(=O)c4cccc(Cl)c4)cc3)CC2)cc1OC`, the pIC50 is less than 4.49 in series [1]; 5.42 in series [4]; 5.20 in series [5]; 5.51 in series [7]; 4.81 in series [8]. Also, the values for the negative-log EC50 (pEC50) in [2] and in series [3] were 5.79 and 6.18, respectively. In series [6], this compound showed an inhibition at 5 µM of 97%.
As to `COc1ccc(C=C2SC(=N)N(c3ccccc3OC)C2=O)cc1`, the pIC50 in series [1] is 5.35; in [4], 4.86; in series [5], 4.79; in series [7], 4.86; in series [8] it was 4.94. Moreover, the values for the pEC50 in series [2] and in [3] were 6.16 and 6.77, respectively. Moreover, the inhibition at 5 µM in series [6] worked out at 97%.
On to `Cc1cc(Nc2cccc(F)c2)nc(NCc2ccccc2)n1`, for which the pIC50 in series [1] was less than 4.49; in [4] it was 5.39; in series [5] it was 5.59; in [7], 5.12; in [8], 6.04. Also, in series [9], the inhibition at 2 µM worked out at 97%.
In the case of `CCOC(=O)c1c(C)n(-c2ccc(Cl)cc2)c2ccc(OC(=O)C=Cc3ccccc3)cc12`, the pIC50 in series [1] was 4.73; in [4], 5.36; in [5], less than 4.49; in series [7], 4.79; in series [8], 4.94. Also, the pEC50 in series [2] was 6.18; in series [3], 6.67. The inhibition at 5 µM in series [6] is 97%.
For the compound `OCCNc1nc(Nc2ccc(Cl)c(Cl)c2)nc2ccccc12`, the pIC50 in [1] is 5.30; in [4], 5.69; in series [5], 5.52; in [7], 5.48; in series [8] it was 5.59. Further, in [3], the pEC50 was 6.23. The compound also came in with an inhibition at 2 µM in [9] of 94%.
With `COc1ccccc1C(=O)ON=C(N)Cc1cccc2ccccc12`, the pIC50 was 4.86 in series [1]; 5.54 in series [4]; less than 4.49 in [5]; 4.82 in [7]; 5.26 in [8]. Also, the pEC50 in [2] is 6.15; in series [3], 6.09. The same compound returned an inhibition at 5 µM in series [6] of 97%.
For the compound `COc1cc(C(=O)ON=C(N)Cc2cccc3ccccc23)cc(OC)c1OC`, the pIC50 in [1] is 5.25; in [4] it was 5.94; in series [5], less than 4.49; in series [7], 5.39; in series [8] it was 5.58. In addition, the pEC50 in [2] was 6.27; in [3], 6.11. This compound yielded an inhibition at 5 µM in series [6] of 99%.
For the compound `Cc1cc(C=C2SC(=Nc3ccccc3)N(C3CCCC3)C2=O)c(C)n1-c1ccc(Cl)cc1`, the pIC50 was less than 4.49 in [1]; less than 4.49 in series [4]; 4.60 in series [5]; less than 4.49 in [7]; less than 4.49 in [8]. The pEC50 was 6.18 in series [2] and 6.58 in series [3]. The same compound returned an inhibition at 5 µM in series [6] of 97%.
`c1ccc(CNc2nc(Nc3ccccc3)nc3ccccc23)cc1`: the negative-log IC50 (pIC50) is 5.47 in series [1]; 5.52 in [4]; 6.15 in series [5]; 5.47 in series [7]; 5.83 in series [8]. Moreover, the pEC50 in [3] was 6.11. The same compound displayed an inhibition at 2 µM in series [9] of 95%.
As to `CN(C)c1ccc(N2C(N)=NC(N)=NC2(C)C)cc1`, the pIC50 in [1], in [4], in [5], in series [7] and in series [8] was less than 4.49 in each case. In series [9], this compound had an inhibition at 2 µM of 95%.
Turning to `CCOc1ccc2nc(C)cc(Nc3ccc(Br)cc3)c2c1`, the pIC50 in series [1] was 5.50; in [4] it was 5.48; in series [5], 5.39; in series [7], 5.44; in [8] it was 5.37. The compound further gave a pEC50 in [3] of 6.32. Moreover, the inhibition at 2 µM in [9] was 96%.
As to `CCCCCCc1cc2cc(-c3nc4ccccc4[nH]3)c(=Nc3ccccc3C)oc2cc1O`, the pIC50 in series [1] was less than 4.49; in series [4], 4.89; in [5], less than 4.49; in series [7] it was 4.77; in series [8] it was less than 4.49. The results for the pEC50 in series [2] and in series [3] were 6.83 and 6.26, respectively. The compound also came in with an inhibition at 5 µM in series [6] of 96%.
As for `COc1ccc2sc(N(Cc3cccnc3)C(=O)c3ccc(C#N)cc3)nc2c1`, the pIC50 in series [1] was less than 4.49; in [4], 4.79; in series [5] it was less than 4.49; in series [7], less than 4.49; in [8], 5.26. This compound gave an inhibition at 2 µM in [9] of 89%.
Take `O=C(Nc1cccc(C2=NCCN2)c1)Nc1cccc(C2=NCCN2)c1` [IMIDOCARB]: the pIC50 is less than 4.49 in [1]; 6.58 in series [4]; less than 4.49 in series [5]; 4.71 in series [7]; less than 4.49 in series [8]. The figures for the negative-log EC50 (pEC50) in series [2] and in [3] were 5.86 and 6.00, respectively. Besides, in series [6], the inhibition at 5 µM was 83%.
For the compound `CN(C)c1ccc(C(O)(c2ccc(N(C)C)cc2)c2ccc(N(C)C)cc2)cc1` [METHYLROSANILINE], the pIC50 in series [1] was 6.45; in [4], more than 6.90; in series [5] it was more than 6.90; in series [7], more than 6.90; in series [8] it was more than 6.90. For the same compound, the negative logarithm of the EC50 (pEC50) was 6.30 in series [2] and 6.59 in [3]. For the same compound, the inhibition at 5 µM in series [6] was 96%.
